For one molecule, bioavailability results are on record in patent US20100011610A1, “FLUIDIZED SPRAY DRYING” (Vertex Pharmaceuticals Incorporated, priority 2006, published 2010).

The data set can be described thus: in vivo. The note with it: rat, po.

Where only a bound is given, the exact number is not on record here.

What is called bioavailability is the share of a dose that reaches the circulation, judged against a reference dose that is usually intravenous. High values mean good availability, low ones poor availability. The molecule `CCC[C@H](NC(=O)[C@@H]1[C@H]2CCC[C@H]2CN1C(=O)[C@@H](NC(=O)[C@@H](NC(=O)c1cnccn1)C1CCCCC1)C(C)(C)C)C(=O)C(=O)NC1CC1` [VX-950, Telaprevir] returned a bioavailability below 0.5%.
